Like-named read-outs stand apart in the source and are kept apart here.
Tests used:
[1] = system: HIV-1 based replication-defective lentiviral particles; assay: microbe, parasite or virus in culture; assay type: cell-based; details: for EC50: Human immunodeficiency virus 1, Jurkat, 72 h
[2] = Cell viability analysis, Trypan blue staining, Jurkat cells; assay type: cell-based, human; details: human, 72 h
Description: (§1) In this study, we used Jurkat and CEM-ss (human T-lymphoblastic leukemia) cells cultured in RPMI-1640 medium and HEK293T (human embryonic kidney cells) cells cultured in a DMEM medium. Growth medium was supplemented with 10% FBS (fetal bovine serum), 2 mM L-glutamine, 1mM sodium pyruvate, 100 μg/mL of streptomycin, and 100 units/mL of penicillin (Gibco/Invitrogen Life technologies). Cells were cultured at 37 °C in a humidified atmosphere with 5% CO2.
(§2) Palbociclib was dissolved in H2O. At 72 h after treatment, cell viability was assessed by staining with a 0.4% Trypan blue solution (Invitrogene Corp., Carlsbad, CA, USA) by counting in a Neubauer chamber. CC50s were calculated by nonlinear regression with variable slope (four parameters) and robust fitting using the GraphPad Prism software v.8.4.3 (GraphPad Software, San Diego, CA, USA).

[3] = Cell viability analysis, Trypan blue staining, CEM-ss cells; assay type: cell-based, human; details: human, CEM-ss cells, 0–30 μM
Description: as §1, §2

[4] = system: HIV-1 based replication-defective lentiviral particles; assay: microbe, parasite or virus in culture; assay type: cell-based; details: for EC50: Human immunodeficiency virus 1, CEM-SS, 72 h
Jurkat cells [5] = assay: Cell viability analysis, Trypan blue staining, Jurkat cells; assay type: cell-based, human
Description: as §1, §2

CEM-ss cells = assay: Cell viability analysis, Trypan blue staining, CEM-ss cells; assay type: cell-based, human; details: 72 h, concentrations up to 30 μM
Description: as §1, §2

[6] = system: HIV-1 based replication-defective lentiviral particles; assay: Drug combination analysis AZT with 2f, VP-GFP transduction of Jurkat cells
Description: (§4) In our experiments, we decided not to exceed the concentration of 30 μM of each drug in order to exclude the possible side effects of DMSO; concentration in a well for these experiments was not more than 0.06%. The equivalent concentration of DMSO (0.06%) was used in control samples of cells not treated with drugs. […] At 72 h after transduction, the percentage of eGFP-positive cells was determined by flow cytometry (LSR Fortessa, BD Biosciences, Heidelberg, Germany). […] Analysis of the eGFP positive cells percentage was performed with FlowJo software 10.0.7 (FlowJo LLC, Ashland, OR, USA).
(§5) For this we used both compounds at the wide range of concentrations.
(§6) Next, the synergy distribution plots were generated and analyzed using the Synergy Finder v3.0 web source. We used the ZIP model to calculate synergy scores that were used to interpret drug interaction relationships. Scores larger than 10 mean that the interaction between two drugs is synergistic. Scores up to 10 mean that the interaction is likely to be additive.

[7] = system: HIV-1 based replication-defective lentiviral particles; assay: Drug combination analysis AZT with 2f, VP-GFP transduction of CEM-ss cells; details: AZT and 2f in combination, up to 30 μM each
Description: as §4, §5, §6

[8] = system: HIV-1 based replication-defective lentiviral particles; assay: Drug combination analysis Palbociclib with AZT or 2f, VP-GFP transduction of Jurkat cells; assay type: cell-based; details: for drug interaction with Palbociclib (ZIP synergy): pre-treated with Palbociclib 12 h; for inhibition at 0.0029 µM / inhibition at 0.0059 µM / inhibition at 0.0117 µM: Human immunodeficiency virus 1, Jurkat, read-out: Inhibition efficiency, %, Jurkat
Description: At 48 h post treatment with viral particles encoding marker GFP, the transduction efficiency was measured by flow cytometry (Figure 6E). In both combinations, Palbociclib was used in concentrations of ~3 nM, ~6 nM, or ~12 nM. […] Then, the dose-response matrixes were used to calculate synergy scores using ZIP algorithm (Figure 6F,G).

Jurkat cells [9] = assay: Cell cycle analysis, propidium iodide staining, Jurkat cells; assay type: cell-based, human; details: concentrations up to 12 nM
Description: (§3) Apoptosis was measured by double staining with Annexin V-FITC (Invitrogene, Thermo Scientific, Waltham, MA, USA) and propidium iodide (PI) (Sigma, Cibolo, TX, USA) 72 h after transduction. To measure the distribution of cells in the phases of the cell cycle, Jurkat cells were fixed in ethanol and stained with propidium iodide. All measurements were performed on an LSR Fortessa flow cytometer (BD Biosciences, San Jose, CA, USA). […] Analysis of cell cycle rate was performed with ModFit LT software v.4.1.7 (Verity Software House, Topsham, ME, USA).

Jurkat cells [10] = assay: Apoptosis analysis, Annexin V-FITC/PI staining, Jurkat cells; assay type: cell-based, human; details: 72 h, concentrations up to 12 nM
Description: as §3

[11] = 72 h, concentrations up to 30 μM

For CC1(C)O[C@@H]2[C@H](O1)[C@@H](CO)O[C@H]2n1ccc(=O)[nH]c1=O [2a, 2′,3′-O-isopropylideneuridine], the EC50 [1] was > 30 µM, the CC50 at 72 h ([2]; 0–30 μM) was > 30 µM and the CC50 at 72 h [3] was > 30 µM. The EC50 [4] was > 30 µM.

With Cc1cn([C@@H]2O[C@H](CO)[C@H]3OC(C)(C)O[C@H]32)c(=O)[nH]c1=O [2b, 2′,3′-O-isopropylidene-5-methyluridine] the EC50 [1] was > 30 µM, the CC50 at 72 h ([2]; 0–30 μM) was > 30 µM and the CC50 at 72 h [3] was > 30 µM. For the same compound, the EC50 [4] was > 30 µM.

For CC1(C)O[C@@H]2[C@H](O1)[C@@H](CO)O[C@H]2n1cc(F)c(=O)[nH]c1=O [2c, 2′,3′-O-isopropylidene-5-fluorouridine], the CC50 at 72 h ([2]; 0–30 μM) was 7.9 ± 0.6 µM, the “effect on cell survival” value (Jurkat cells [5]; [11]) was “significant suppressive effect on the survival” and the “effect on cell survival” value (CEM-ss cells) was “significant suppressive effect on the survival”. For the same compound, the CC50 at 72 h [3] was 8.4 ± 2.2 µM.

For CC1(C)O[C@@H]2[C@H](O1)[C@@H](CO)O[C@H]2n1cc(Cl)c(=O)[nH]c1=O [2d, 2′,3′-O-isopropylidene-5-chlorouridine], the EC50 [1] was > 30 µM, the CC50 at 72 h ([2]; 0–30 μM) was > 30 µM and the CC50 at 72 h [3] was > 30 µM. The EC50 [4] was > 30 µM.

For CC1(C)O[C@@H]2[C@H](O1)[C@@H](CO)O[C@H]2n1cc(Br)c(=O)[nH]c1=O [2e, 2′,3′-O-isopropylidene-5-bromouridine], the EC50 [1] was > 30 µM, the CC50 at 72 h ([2]; 0–30 μM) was > 30 µM and the CC50 at 72 h [3] was > 30 µM. The EC50 [4] was > 30 µM.

In the case of CC1(C)O[C@@H]2[C@H](O1)[C@@H](CO)O[C@H]2n1cc(I)c(=O)[nH]c1=O [2f, 2′,3′-O-isopropylidene-5-ioduridine], the “effect on transduction efficiency of HIV-1 lentiviral particles (VP-GFP)” value [1] is reported as “caused the suppression of the transduction efficiency”, the EC50 [1] is reported as 10.5 ± 1.2 µM and the “suppression of VP-GFP transduction efficiency” value (shortened to “suppression”) ([6]; 2f 12 μM supplemented with AZT 12 μM, compared with 2f alone 30 μM (90%)) is reported as “same activity”. The “drug interaction (ZIP synergy, SynergyFinder)” value ([6]; AZT and 2f in combination, up to 30 μM each) was “do not act synergistically”, the “suppression” value ([6]; compound alone, 12 μM) was 70% and the “suppression” value ([6]; compound alone, 30 μM) was 90%. For the same compound, the “drug interaction (ZIP synergy, SynergyFinder)” value [7] was “do not act synergistically”, the “drug interaction with Palbociclib (ZIP synergy)” value ([8]; Jurkat) was “acts synergistically” and the CC50 at 72 h ([2]; 0–30 μM) was > 30 µM. The CC50 at 72 h [3] was > 30 µM and the EC50 [4] was 13.1 ± 1.3 µM.

With Cc1cn([C@H]2C[C@H](N=[N+]=[N-])[C@@H](CO)O2)c(=O)[nH]c1=O [AZT, 3′-Azido-2′,3′-dideoxythymidine, reference compound] the EC50 [1] was 0.4 ± 0.1 µM, the “cells remaining GFP positive (plateau effect)” value ([1]; Jurkat, from 2 μM up to 30 μM) was “about 30%” and the “drug interaction with Palbociclib (ZIP synergy)” value ([8]; Jurkat) was “no synergistic action”. For the same compound, the CC50 at 72 h ([2]; Jurkat cells, 0–30 μM) was > 30 µM, the “effect on cell survival” value (Jurkat cells [5]; [11]) was “did not affect cell survival” and the “effect on cell survival” value (CEM-ss cells) was “did not affect cell survival”. For the same compound, the CC50 at 72 h [3] was > 30 µM, the “cells remaining GFP positive (plateau effect)” value ([4]; CEM-ss, from 2 μM up to 30 μM) was “about 20%” and the EC50 [4] was 0.0122 ± 0.0114 µM.

With CC(=O)c1c(C)c2cnc(Nc3ccc(N4CCNCC4)cn3)nc2n(C2CCCC2)c1=O [Palbociclib] the inhibition at 0.0029 µM ([8]; Palbociclib alone 2.9 nM (2f 0 nM, matrix of panel G)) was 10.8%, the inhibition at 0.0029 µM ([8]; Palbociclib alone 2.9 nM (AZT 0 nM, matrix of panel F)) was 8.03% and the inhibition at 0.0059 µM ([8]; Palbociclib alone 5.9 nM (2f 0 nM, matrix of panel G)) was 5.66%. For the same compound, the inhibition at 0.0059 µM ([8]; Palbociclib alone 5.9 nM (AZT 0 nM, matrix of panel F)) was 8.75%, the inhibition at 0.0117 µM ([8]; Palbociclib alone 11.7 nM (2f 0 nM, matrix of panel G)) was 3.9% and the inhibition at 0.0117 µM ([8]; Palbociclib alone 11.7 nM (AZT 0 nM, matrix of panel F)) was 0.83%. The “suppressive effect on transduction efficiency of VP-GFP” value ([8]; Jurkat, Palbociclib alone, ~3, ~6 or ~12 nM) was “not more than 10%”, the CC50 at 72 h ([2]; Jurkat cells, Palbociclib 0–6 μM) was 0.141 ± 0.0256 µM and the “effect on cell survival” value (Jurkat cells [5]; concentrations up to 12 nM) was “not to affect cell survival”. For the same compound, the “effect on cell cycle progression” value (Jurkat cells [9]) was “did not find any effect on cell cycle progression” and the induction of apoptosis (Jurkat cells [10]) was “does not cause the induction of apotosis”.
